Results from patent US20260137786A1, “FLUORESCENT COMPOUNDS FOR SYNERGISTIC PHOTODYNAMIC AND PHOTOTHERMAL CANCER THERANOSTIC” (The Hong Kong University of Science and Technology, priority 2022, published 2026).

Key:
Format in all cases: physicochemical
[1] = Aggregation behaviour (AIE) in THF/water mixtures; conditions: increasing water fraction
Procedure: (§1) First, the absorption and emission spectra were recorded. From FIG. 3a, the maximum absorptions of TPE-TBT and TPA-TBT are located at 582 and 620 nm, respectively, which display a redshift because of the enhancement of D-A strength from TPE-TBT to TPA-TBT. In addition, the emission spectra of the two molecules peaked at 750 and 830 nm, respectively (FIG. 3b). […] The aggregation behaviors of the compounds were then investigated. After adding poor solvent water to the THE solution, the fluorescence intensities of the two luminogens are first reduced at low water fractions (0-50% of water) resulting from the twisted intramolecular charge transfer (TICT) effect.

[2] = Fluorescence quantum yield (QY)
Procedure: The fluorescence quantum yield (QY) of the two compounds in the solid state, NPs, THF, and other solvents, were also measured (FIG. 3d).
For better use in cancer theranostic, TPA-TBT and TPE-TBT were fabricated into nanoparticles (NPs) through the nanoprecipitation method using DSPE-PEG2000 as an encapsulation matrix. The hydrodynamic diameters of the two NPs were confirmed by dynamic light scattering (DLS). […] The UV/Vis absorption and fluorescence emission spectra of the two kinds of NPs were also measured, and the results are similar to that in the THF solutions. The fluorescence quantum yield (QY) of the two compounds in the solid state, NPs, THF, and other solvents, were also measured (FIG. 3d). […] ROS production efficiency and PCE were investigated to further explore the phototherapy potential of these AIEgens. We utilized a common ROS indicator Dichlorofluorescin Diace (H2DCF-DA), whose fluorescence can be sensitively activated by ROS, to indicate the overall ROS generation. From FIG. 3e, the fluorescence intensity of H2DCF-DA intensified rapidly in the presence of TPA-TBT NPs. Finally, it reached around 210-fold more robust than the initial intensity after 5 min upon white light irradiation, displaying a much higher ROS production efficiency than TPE-TBT NPs. […] While the PCE of TPE-TBT NPs is only 30%. Considering all the aspects, TPA-TBT NPs show longer fluorescence emission wavelength, higher ROS generation efficiency, and better photothermal efficiency. Therefore, TPA-TBT NPs are more promising for applications in the field of phototheranostic for synergistic cancer therapy.

[3] = Absorption and emission (PL) spectra in THF solution; conditions: for emission spectra peak / maximum absorption: 10 μM
Procedure: as §1

AIE intensity enhancement [1]	fluorescence quantum yield (QY) ([2]; THE solution / solution state)	fluorescence quantum yield (QY) ([2]; solid state)	Stokes shift [3]	emission spectra peak [3]	maximum absorption [3]	SMILES
3 fold	5%	13%	210 nm	830 nm	620 nm	CCCCCCC(CCCC)Cc1cc(-c2ccc(N(c3ccc(OC)cc3)c3ccc(OC)cc3)cc2)sc1-c1c2c(c(-c3sc(-c4ccc(N(c5ccc(OC)cc5)c5ccc(OC)cc5)cc4)cc3CC(CCCC)CCCCCC)c3nn(CC(CC)CCCC)nc13)N=S=N2 (stereo not drawn) [TPA-TBT]
	remarkable QY			750 nm	582 nm	CCCCCCC(CCCC)Cc1cc(-c2ccc(C(=C(c3ccc(OC)cc3)c3ccc(OC)cc3)c3ccccc3)cc2)sc1-c1c2c(c(-c3sc(-c4ccc(C(=C(c5ccc(OC)cc5)c5ccc(OC)cc5)c5ccccc5)cc4)cc3CC(CCCC)CCCCCC)c3nn(CC(CC)CCCC)nc13)N=S=N2 (stereo not drawn) [TPE-TBT]
